Laboratory results published in paper PMC6934184, “Selective DNA-PKcs inhibition extends the therapeutic index of localized radiotherapy and chemotherapy” (The Journal of Clinical Investigation, 2019).

Target: T1, EIF2AK2 (PKR) (Homo sapiens, UniProt P19525)
T1 construct: purchased Thermo Fisher Scientific (Life Technologies) SelectScreen
Assay: SelectScreen LanthaScreen
Format: binding
Conditions: 1 µM
In short: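 Percent values come from Thermo SelectScreen profiling of NU5455, combining activity and binding assays. CSF1R was run in Z'LYTE format at Km app ATP, and CAMK1 in Adapta format with ATP listed at 10.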

T1 sequence (P19525 whole entry): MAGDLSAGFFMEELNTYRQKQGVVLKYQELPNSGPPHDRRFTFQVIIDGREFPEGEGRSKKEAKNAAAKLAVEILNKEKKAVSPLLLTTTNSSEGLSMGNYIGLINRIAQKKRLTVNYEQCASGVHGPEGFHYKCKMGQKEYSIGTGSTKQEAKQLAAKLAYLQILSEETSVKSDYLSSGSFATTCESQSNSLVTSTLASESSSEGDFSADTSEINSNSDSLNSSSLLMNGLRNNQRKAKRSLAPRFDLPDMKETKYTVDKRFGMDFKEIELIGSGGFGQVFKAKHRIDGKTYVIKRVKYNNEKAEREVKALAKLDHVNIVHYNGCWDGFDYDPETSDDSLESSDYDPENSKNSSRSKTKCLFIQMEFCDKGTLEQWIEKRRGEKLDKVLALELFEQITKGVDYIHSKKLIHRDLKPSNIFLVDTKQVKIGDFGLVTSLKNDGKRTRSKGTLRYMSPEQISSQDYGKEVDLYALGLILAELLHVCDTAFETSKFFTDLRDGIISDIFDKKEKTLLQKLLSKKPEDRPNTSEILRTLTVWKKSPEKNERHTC

In the case of CN(C(=O)CN1CCOCC1)c1ccc2sc3c(-c4cccc5c(=O)cc(N6CC7CCC(C6)O7)oc45)cccc3c2c1 [NU5455], the “% displacement” value is reported as 13.3%.
